Test results published in US20060040298A1, “Rhesus monkey NURR1 nuclear receptor” (priority 2004, published 2006).

What was measured:
Assay type in all cases: cell-based, Macaca mulatta (rhesus monkey)
[1] = target: T1, GR/NURR1 chimera (rat GR DBD fused to rhNURR1 LBD) (UniProt P06536+P43354); test: GR/NURR1 chimera transactivation of the MMTV-LUC reporter in transfected CHO cells; settings: FIG. 6; for NURR1 agonist activity: CHO cells co-transfected with GR/NURR1 chimera and reporter gene expression cassette; for luciferase expression from the MMTV-LUC reporter plasmid: CHO cells, compared to compound F and TOFA
T1 construct: expressed in transfected cells; host or cells: CHO cells, transient transfection of the pSG5 plasmid
T1 sequence (P06536+P43354 fused, change not shown): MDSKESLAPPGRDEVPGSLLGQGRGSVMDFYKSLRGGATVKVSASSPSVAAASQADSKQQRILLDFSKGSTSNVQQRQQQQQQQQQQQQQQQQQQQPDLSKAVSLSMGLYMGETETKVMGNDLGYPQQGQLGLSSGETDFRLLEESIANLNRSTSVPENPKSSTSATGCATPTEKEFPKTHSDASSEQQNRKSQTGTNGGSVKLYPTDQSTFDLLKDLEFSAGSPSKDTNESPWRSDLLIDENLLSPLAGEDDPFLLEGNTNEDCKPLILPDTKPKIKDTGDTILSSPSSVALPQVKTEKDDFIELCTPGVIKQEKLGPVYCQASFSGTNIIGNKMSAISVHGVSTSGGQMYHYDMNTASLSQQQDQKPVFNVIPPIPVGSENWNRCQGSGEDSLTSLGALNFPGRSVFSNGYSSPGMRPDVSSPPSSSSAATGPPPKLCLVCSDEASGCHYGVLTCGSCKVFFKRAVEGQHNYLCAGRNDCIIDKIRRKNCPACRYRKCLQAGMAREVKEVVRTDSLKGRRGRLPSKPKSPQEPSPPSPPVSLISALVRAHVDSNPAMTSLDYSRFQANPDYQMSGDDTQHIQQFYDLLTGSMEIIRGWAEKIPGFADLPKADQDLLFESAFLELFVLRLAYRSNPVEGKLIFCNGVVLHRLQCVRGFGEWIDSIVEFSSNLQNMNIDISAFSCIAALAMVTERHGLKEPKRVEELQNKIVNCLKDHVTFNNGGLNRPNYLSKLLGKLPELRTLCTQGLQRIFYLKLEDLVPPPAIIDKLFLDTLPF
From the text: A nucleic acid encoding a chimeric nuclear receptor comprising the rat glucocorticoid receptor (GR) DBD fused to the rhNURR1 LBD was constructed and the nucleic acid inserted downstream of the SV40 promoter in plasmid pSG5. The rat GR DBD consists of about amino acid 1 to about amino acid 505 and the rhNURR1 LBD consists of the amino acid sequence beginning from about amino acid 329 to about amino acid 598 (See FIG. 2). A nucleic acid encoding the rat GR DBD, which consisted of nucleotides 1 to 1583 (and which included the proximal 5′ untranslated sequences), was ligated to the nucleic encoding the rhNURR1 (nucleotides 329 to 1794). At the junction in the fusion protein between amino acid 505 of the rat GR DBD and amino acid 329 of the rhNURR1 LDB there are three extra amino acids, Alanine, Arginine, and Glutamic acid, which are encoded by the oligonucleotide 5′-GCTCGAGAA-3′ (SEQ ID NO:11) which includes an XhoI restriction enyme site.
The chimeric nuclear receptor was constructed by ligating the rat GRDBD encoding nucleotide fragment (nucleotides 1 to 1583) to the rhNURR1 LBD encoding nucleotide fragment (nucleotides 329 to 1794) and then inserting the ligated GRDBD/rhNURR1 LBD nucleotide fragments into the pSG5 plasmid expression vector between the EcoRI and BamHI sites.
A reporter gene expression cassette comprising the MMTV(2xGRE) promoter was constructed as described in Schmidt et al., Mol. Endocrinol. 6(10):1634-41 (1992).
A routine transient transfection assay for identifying agonists of rhNURR1 activity is described. While the transfection uses the FuGENE6 method of Roche Applied Science, Indianapolis, Ind., other transfection methods can be used.
In general, the method consists of plating about 0.8 to 1×10^4 transfected COS-1 or CHO cells per well of 96-well tissue culture plates which are UV and visible light transparent. The media that the cells are plated in is exponential growth medium which consists of phenol red-free DMEM containing 10% fetal bovine serum and 1× penicillin/streptomycin. Incubation conditions are 37° C. and 5% CO2. The transfection is done in batch mode.
For a transfection, the cells are trypsinized and resuspended to about 8×10^4 cells/mL in fresh medium. FuGENE6 is mixed with serum-free medium (for example, OPTIMEM, Invitrogen, Carlsbad, Calif.) at a ratio of 2 to 3. About 0.625 ng of DNA encoding the chimeric receptor of Example 2 and 0.625 ng DNA comprising the MMTV promoter operably linked to the luciferase gene (MMTV-LUC) are added to the FuGENE6 in serum-free medium and the mixture incubated at room temperature for about 20 minutes. The mixture is then added to one mL of the cell suspension and 100 μL aliquots plated to the wells of a 96-well tissue culture plate. Thus, a total ten wells contain cells, each containing about 8,000 cells. About 16 to 24 hours after transfection, for each well, about 1 uL of an analyte in a vehicle such as DMSO is added to the well. At least one well is reserved as a control and receives the vehicle alone. After 24 hours exposure to the analytes, the cells are assayed for luciferase activity. The cells are lysed by a Promega cell culture lysis buffer for approximately 30 min and then the luciferase activity in the extracts is assayed in the 96-well format liminometer (MICROBETA JET 1450, Perkin Elmer, Boston, Mass.). Results are calculated as fold induction of compound treated cells over control treated cells.
The CHO cells were transfected as in Example 3. […]

[2] = target: T2, GR/NURR1 chimera receptor (NURR1 LBD) (UniProt P06536+P43354); test: Relative transactivation of GR/NURR1 chimera receptor versus GR/PPARα chimeric receptor, MMTV-luciferase reporter; settings: test analytes at 0, 1, 10, and 30 μM in DMSO; FIG. 7
T2 construct: expressed in transfected cells
T2 sequence (P06536+P43354 fused, change not shown): as above
Protocol: The relative transactivation of GR/NURR1 chimera receptor in response to a panel of test analytes was determined.
To further verify the selective NURR1 LBD-compound interactions, the same compounds were added to cells that had been co-transfected with the MMTV-luciferase reporter gene expression cassette and a gene expression cassette comprising DNA encoding either the chimeric receptor GR/NURR1 or a chimeric GR/PPARα receptor under conditions similar to those in Example 5.
Expression vector 3GR/PPARα contained the chimeric GR/PPARα receptor in which DNA encoding the DNA binding domain of GR was fused to the ligand binding domain of mouse PPARα was inserted into plasmid pSG5 (See Boie et al., J. Biol. Chem. 268: 5530-[…] (1993)).
Then, aliquots of the transfected cells were treated with test analytes at 0, 1, 10, and 30 μM concentrations in DMSO. The test analytes included Bicalutamide, Lovastatin, ZOCOR, and various SARM compounds. The results are shown in FIG. 7 and are expressed as a relative activity in which the activity at each concentration that was obtained with the extracts from the cells cotransfected with GR/NURR1 was divided by the corresponding activity that was obtained from extracts from the cells cotransfected with GR/PPARα. Other chimeric receptors other than GR/PPARα can be used. […]

[3] = target: T2, GR/NURR1 chimera receptor (NURR1 LBD); test: Relative transactivation of GR/NURR1 chimera receptor versus GR/LXRβ chimeric receptor, MMTV-luciferase reporter; settings: test analytes at 0, 1, 10, and 30 μM in DMSO; 48 hours post-transfection; FIG. 8
Protocol: Relative transactivation of GR/NURR1 chimera receptor in response to a panel of test analytes was determined.
An MMTV-luciferase reporter gene expression cassette was cotransfected with a gene expression cassette comprising DNA encoding either the chimeric receptor GR/NURR1 or a chimeric receptor comprising GR/LXRβ under transfection conditions similar to those in Example 3.
Expression vector GR/LXRβ was prepared in a similar manner to the GR/PPARα chimeric receptor in Example 5. […]
The next day, the transfected cells were washed and then refed with the appropriate medium containing 5% activated charcoal-stripped serum. […] The results are shown in FIG. 8 and are expressed as a relative activity in which the activity at each concentration that was obtained with cells transfected with the GR/NURR1 was divided by the corresponding activity that was obtained from cells cotransfected with the GR/LXRβ. […]

NURR1 agonist activity [1]	luciferase expression from the MMTV-LUC reporter plasmid [1]	relative activity (GR/NURR1 activity divided by GR/PPARα activity) [2]	relative activity (GR/NURR1 activity divided by GR/LXRβ activity) [3]	SMILES
NURR1 agonists	increase in luciferase expression	increase in activity	increase in activity	CC[C@H](C)C(=O)O[C@H]1C[C@@H](C)C=C2C=C[C@H](C)[C@H](CC[C@@H]3C[C@@H](O)CC(=O)O3)[C@H]21 [Lovastatin]
NURR1 agonists	–	–	–	CCCCCCCCCCCCCCOc1ccc(C(=O)O)o1 [TOFA, 5-(tetradecyloxy)-2-furoic acid]
NURR1 agonists	increase in luciferase expression	increase in activity	increase in activity	CCC(C)(C)C(=O)O[C@H]1C[C@@H](C)C=C2C=C[C@H](C)[C@H](CC[C@@H]3C[C@@H](O)CC(=O)O3)[C@H]21 [ZOCOR]
